Molecular target: Glutaminyl-peptide cyclotransferase (Homo sapiens, UniProt Q16769)
Assay: Inhibition of human recombinant glutaminyl cyclase using H-Gln-AMC hydrobromide as substrate measured after 15 mins by fluorimetry

Glutaminyl-peptide cyclotransferase, sequence (Q16769 whole entry): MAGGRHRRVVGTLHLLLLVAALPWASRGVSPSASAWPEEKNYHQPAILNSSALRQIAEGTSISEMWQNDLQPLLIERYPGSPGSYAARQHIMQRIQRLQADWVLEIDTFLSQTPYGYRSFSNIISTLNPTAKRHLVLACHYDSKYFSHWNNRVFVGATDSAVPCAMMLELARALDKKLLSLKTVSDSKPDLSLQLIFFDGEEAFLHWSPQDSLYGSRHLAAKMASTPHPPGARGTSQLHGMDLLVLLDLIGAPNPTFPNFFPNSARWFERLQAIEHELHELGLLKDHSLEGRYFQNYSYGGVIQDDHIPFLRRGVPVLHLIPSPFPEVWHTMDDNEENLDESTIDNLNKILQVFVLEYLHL

In the case of `COc1ccc(N(C(=S)NCCCn2cncc2C)C2CCN(C)CC2)cc1OC`, the IC50 is reported as 6.1 nM.
